Experimental data taken from patent US20030208035A1, “Antifungal and/or antibacterial peptides, preparation methods, compositions containing same and methods of treating mammals and/or plants” (priority 2000, published 2003).

What was measured:
[1] = test system: Candida albicans (IHEM 8060 strain); assay: Candida albicans infected model, lethal in mice (disseminated candidiasis); format: in vivo; conditions: for median mortality, time after infection / morbidity score at day 7: 4 injections; for morbidity score at day 7: 50 = all 10 mice healthy; for activity compared with Ard1 / mice alive on day 7 (out of 10) / time of onset of the 1st death: FIGS. 4-5, 10 mg/kg; for mice alive on day 7 (out of 10): placebo 5 alive; for time of onset of the 1st death: placebo day 2.5
Protocol: Heliomycin and its analogues were tested for in vivo antifungal activity in a model infected with Candida albicans, lethal in mice. The pathogenic agent Candida albicans (IHEM 8060 strain) was inoculated by intravenous route (i.v.) at a dose of 2.5×10^6 CFU/mouse. the peptides were administered by i.v. route in 4 injections 6 h, 24 h, 48 h and 72 h after infection. Assessment criteria for activity were evaluation of survival and morbidity at 7 days. The morbidity scores, which take into account general state of health (condition of fur, mobility, hydration) were determined for each mouse with values ranging from 0 to 5 and defined below: 0=dead, 1=moribund, 2=very ill, 3=ill, 4=slightly ill, 5=healthy. The sum of the individual scores was calculated for each group, a score of 50 for a group of 10 mice meaning that all the mice were healthy.
Following a standard protocol, groups of 10 Swiss OF1 male mice weighing 12 g were infected via i.v. route with a dose of 2.5×10^6 CFU/mouse. Heliomycin and Ard1 were administered by i.v. route in 4 injections, 6 h, 24 h, 48 h and 72 h after infection. For each peptide, 2 doses were tested: 10 mg/kg and 30 mg/kg. A placebo group was injected with peptide solvent, 0.9% sodium chloride.
In this experiment, inoculation of the mice with 2.5.10^6 CFU/mouse was 50% lethal at day 5 in the group which received placebo treatment. The first deaths occurred on post-infection day 2.5 and median mortality occurred on post-infection day 5. On day 7, 5 mice were alive and the morbidity score 15/50.
In this experiment, inoculation of Swiss OF1 mice weighing 15 g with 3.10^6 CFU of Candida albicans induces 50% mortality on day 4 after infection in the group treated with the placebo. The first deaths occur 2.5 days after infection, and 100% of the mice were dead on day 5.5.
In this experiment, inoculation of the mice with 2.5.10^6 CFU/mouse was 50% lethal at day 5 and 100% at day 8 for mice in the placebo group. The first death occurred 3 days after infection. The morbidity score fell rapidly below 30/50 (25/50 at day 2.5).
The pEM35 peptide was administered at doses of 10 and 30 mg/kg/injection with 3 daily doses for 4 days (1 h, 5 h and 10 h post-infection on day 0; at 8 h, 14 h and 20 h on days 1, 2 and 3), i.e., daily doses totalling 30 and 90 mg/kg.

Candida albicans = assay: anti-Candida albicans growth inhibition test in liquid medium (96-well microplates); format: cell-based; conditions: for Activity C.a. (relative activity in relation to heliomycin): fold relative to heliomycin; for Activity C.a. (relative activity in relation to Ard1): fold relative to Ard1
Protocol: (§1) The anti-Candida albicans and anti-Aspergillus fumigatus activities of the different analogues were assessed using a growth inhibition test in liquid medium made in 96-well microplates. The activity of the purified peptides was tested for different dilutions of each peptide and was compared with those of heliomycin and Ard1 quantified under the same conditions.
The activity test was made directly on yeasts derived from a stock frozen at −80° C., in Sabouraud medium containing 15% glycerol. The density of the yeasts in the stock was adjusted to an optical density of 0.4 OD at 600 nm. After slow thawing at room temperature, the yeast suspension was reduced by dilution to an optic density of 1 mOD at 600 nm in Sabouraud medium, and 90 μl of this dilution were deposited in the wells of microtitration plates in the presence of 10 μl of sample to be tested. Control samples were systematically made in which 10 μl of sample were replaced by 10 μl of sterile water. Media sterility was controlled by incubating 10 μl sterile water in the presence of 90 μl of medium. The samples were incubated at 30° C. for 40 h under slight stirring and the antifungal activity was quantified by measuring optic density at 600 nm.

Aspergillus fumigatus = assay: anti-Aspergillus fumigatus growth inhibition test in liquid medium (96-well microplates); format: cell-based; conditions: for Activity A.f. (relative activity in relation to heliomycin): fold relative to heliomycin; for Activity A.f. (relative activity in relation to Ard1): fold relative to Ard1
Protocol: as §1
The spores of Aspergillus fumigatus were derived from a stock frozen at −80° C., containing 10^7 spores/ml in a 25% glycerol solution. After slow thawing at room temperature, the spores were placed in suspension in PDB culture medium (12 g Potato Dextrose Broth medium, per […] water). 10 μl of each sample were deposited in the wells of microtitration plates in the presence of 90 μl PDB culture medium supplemented with tetracycline (100 μg/ml) and cefotaxime (1 μg/ml) containing the spores (at a final concentration of 1000 spores/well). Control cultures were systematically made in which 10 μl of sample were replaced by 10 μl of sterile water. Media sterility was controlled by incubating 10 μl sterile water in the presence of 90 μl of medium. The samples were incubated at 37° C. for 24 h to 48 h in a humid atmosphere, and the antifungal activity was quantified by a score of 0 to 9 taking germination account; the size and morphology of the hyphs were determined under the binocular microscope. […].

| Compound | Activity C.a. (relative activity in relation to heliomycin) (Candida albicans) | Activity A.f. (relative activity in relation to heliomycin) (Aspergillus fumigatus) | Activity C.a. (relative activity in relation to Ard1) (Candida albicans) | Activity A.f. (relative activity in relation to Ard1) (Aspergillus fumigatus) | also measured |
| --- | --- | --- | --- | --- | --- |
| Cc1cc(O)c2c3c4c(cc(O)c13)C(C)(C)C(=O)c1c(O)cc(O)c(c1-4)C2=O [Heliomycin, reference compound] |  |  |  |  | median mortality, time after infection ([1]; FIGS. 2-3, 10 mg/kg i.v.): 48 h; morbidity score at day 7 ([1]; FIGS. 2-3, 10 mg/kg i.v.): 0/50; median mortality, time after infection ([1]; FIGS. 2-3, 30 mg/kg i.v.): 60 h; morbidity score at day 7 ([1]; FIGS. 2-3, 30 mg/kg i.v.): 5/50; effect on survival rate ([1]; FIGS. 2-3, 2.5×10^6 CFU/mouse i.v., 10 and 30 mg/kg i.v., 4 injections 6, 24, 48, 72 h, 10 mice, placebo 100% lethal day 4): no significant effect |
| DKLIGSCVWGAVNYTRDCNGECKRRGYKGGHCGSFANVNCWCET [pEM42, peptide derived from heliomycin] | 8 | 1 |  |  |  |
| DKLIGSCVWGAVNYTRNCNAECKRRGYKGGHCGSFANVNCWCET [pEM50, peptide derived from Ard1] |  |  | 1-2 | 1 |  |
| DKLIGSCVWGAVNYTSDCNGECKRRGYKGGHCGSFANINCWCET [pEM23, peptide derived from heliomycin] | 1 | 2 |  |  |  |
| DKLIGSCVWGAVNYTSDCNGECKRRGYKGGHCGSFANVNCWCER [pEM7, peptide derived from heliomycin] | 4-8 | 1 |  |  |  |
| DKLIGSCVWGAVNYTSDCNGECKRRGYKGGHCGSFANVNCWCQT [pEM21, peptide derived from heliomycin] | 2 | 10-20 |  |  |  |
| DKLIGSCVWGAVNYTSDCNGECKRRGYKGGHCGSFINVNCWCET [pEM22, peptide derived from heliomycin] | 1-2 | 4-8 |  |  |  |
| DKLIGSCVWGAVNYTSDCNGECKRRGYKGGHCGSFLNINCWCET [pEM24, peptide derived from heliomycin] | 4 | 8 |  |  | activity compared with Ard1 [1]: more active than Ard1; mice alive on day 7 (out of 10) [1]: 7 mice; time of onset of the 1st death [1]: 3 days |
| DKLIGSCVWGAVNYTSDCNGECKRRGYKGGHCGSFLNVNCWCET [pEM25, peptide derived from heliomycin] | 10 | 6 |  |  |  |
| DKLIGSCVWGAVNYTSDCRGECKRRGYKGGHCGSFANVNCWCET [pEM44, peptide derived from heliomycin] | 8 | 2 |  |  |  |
| DKLIGSCVWGAVNYTSNCNAECKRRGYKGGHCGSFANINCWCET [pEM33, peptide derived from Ard1] |  |  | 1 | 1 |  |
| DKLIGSCVWGAVNYTSNCNAECKRRGYKGGHCGSFANVNCWCER [pEM30, peptide derived from Ard1] |  |  | 4 | 0.5-1 | activity compared with Ard1 [1]: more active than Ard1; mice alive on day 7 (out of 10) [1]: 7 mice; time of onset of the 1st death [1]: 4 days |
| DKLIGSCVWGAVNYTSNCNAECKRRGYKGGHCGSFINVNCWCER [pEM49, peptide derived from Ard1] |  |  | 3 | 1-2 |  |
| DKLIGSCVWGAVNYTSNCNAECKRRGYKGGHCGSFINVNCWCET [pEM32, peptide derived from Ard1] |  |  | 1 | 2 |  |
| DKLIGSCVWGAVNYTSNCNAECKRRGYKGGHCGSFINVNCWCQT [pEM47, peptide derived from Ard1] |  |  | 2-4 | 8 |  |
| DKLIGSCVWGAVNYTSNCNAECKRRGYKGGHCGSFLNINCWCET [pEM34, peptide derived from Ard1] |  |  | 4 | 4 |  |
| DKLIGSCVWGAVNYTSRCNAECKRRGYKGGHCGSFANVNCWCET [pEM52, peptide derived from Ard1] |  |  | 1-2 | 0.5 |  |
| DKLIGSCVWGAVNYTTDCNGECKRRGYKGGHCGSFANVNCWCET [pEM43, peptide derived from heliomycin] | 1 | 2 |  |  |  |
| DKLIGSCVWLAVNYTSNCNAECKRRGYKGGHCGSFANVNCWCET [pEM56, peptide derived from Ard1] |  |  | 1-2 | 0.5 |  |
| DKLIGSCVWLAVNYTSNCNAECKRRGYKGGHCGSFANVNCWCQT [pEM57, peptide derived from Ard1] |  |  | 1 | 8 |  |
| DKLIGSCVWLAVNYTSNCNAECKRRGYKGGHCGSFLNVNCWCET [pEM54, peptide derived from Ard1] |  |  | 1 | 1 |  |
| DKLIGSCVWLAVNYTSNCNAECKRRGYKGGHCGSFLNVNCWCQT [pEM55, peptide derived from Ard1] |  |  | 1-2 | 2-7 |  |
| DKLIGTCVWGAVNYTSDCNGECKRRGYKGGHCGSFANVNCWCET [pEM38, peptide derived from heliomycin] | 1 | 1 |  |  |  |
| NKLIGSCVWGAVNYTSDCNGECKRRGYKGGHCGSFANVNCWCET [pEM37, peptide derived from heliomycin] | 2 |  |  |  |  |
| NKLIGSCVWGAVNYTSDCNGECKRRGYKGGHCGSFANVNCWCQT [pEM39, peptide derived from heliomycin] | 2 | 4-8 |  |  |  |
| NKLIGSCVWGAVNYTSDCNGECKRRGYKGGHCGSFINVNCWCQT [pEM62, peptide derived from heliomycin] | 3-6 | 2-4 |  |  |  |
| NKLIGSCVWGAVNYTSDCNGECKRRGYKGGHCGSFLNVNCWCQT [pEM61, peptide derived from heliomycin] | 5-10 | 3-6 |  |  |  |
| NKLIGSCVWGAVNYTSNCNAECKRRGYKGGHCGSFANVNCWCET [pEM40, peptide derived from Ard1] |  |  | 2 | 1 |  |
